Data set [1] can be described thus: Pharmacokinetic study after oral dosing, dog. The settings on record: in vivo, solution in 20% kleptose in water, Dog beagle male, Fasted, 5 mL/kg; for AUC(0-t): read-out: AUC0-24 h; for concentration at 24 h: read-out: C24 h. The protocol:
(§1) The pharmacokinetic profile of (S)-4-(2,2-difluoro-7-((5-methoxy-7-methyl-1H-indol-4-yl)methyl)-7-azaspiro[3.5]nonan-6-yl)benzoic acid was assessed in rats, dogs or non-human primates (NHPs) as the amorphous compound as a solution in 20% kleptose in water and as a suspension of Form A in 0.5% methocel+0.1% tween 80 in water.
(§2) Amorphous (S)-4-(2,2-difluoro-7-((5-methoxy-7-methyl-1H-indol-4-yl)methyl)-7-azaspiro[3.5]nonan-6-yl)benzoic acid was weighed into a glass vial with a magnetic stir bar to give formulations at dose concentrations of 0.1-1000 mg/kg. Approx. ⅓ the final volume of 20% kleptose (hydroxypropyl β-cyclodextrin, Aldrich, CAS #128446-35-5) in water was added to the vial (to afford either a 5 mL/kg or 10 mL/kg dose volume, depending on the species). The mixture was basified to a pH of 8.5 to 10 using dropwise addition of 2-5 M aqueous NaOH solution, with pH monitoring. The suspension was stirred, vortexed, and sonicated for 15-20 minutes to afford a homogenous mixture. The second ⅓ of the final volume of 20% kleptose was added to the vial and further stirred, vortexed, and sonicated for 15-20 minutes to afford a homogenous mixture. The pH was monitored and further pH adjustment to pH 8.5 to 10, if necessary, can be applied. The final ⅓ the final volume of 20% kleptose was added to the vial and further stirred, vortexed, and sonicated for 15-20 minutes to afford a homogenous solution. The pH of the solution was adjusted to a pH of 7.5 to 8.0 with dropwise addition of 1.0 M aqueous HCl solution with gentle stirring. The formulation should remain in solution.

Data set [2] in a line: Pharmacokinetic study after oral dosing, non-human primate. The settings on record: cynomolgus monkey, in vivo, solution in 20% kleptose in water, Cyno male, 30 mg/kg, Fed, 5 mL/kg. The protocol:
as §1, §2

A short description of data set [3]: Pharmacokinetic study after oral dosing, rat. In kind it is in vivo, SD Rat. The settings on record: male, SD (Sprague-Dawley), rat, in vivo, po, solution in 20% kleptose in water, SD Rat male, Fed, 10 mL/kg; for AUC(0-t) / concentration at 24 h: oral; for AUC(0-t): read-out: AUC0-24 h; for concentration at 24 h: read-out: C24 h. The protocol: as §1, §2
Form A crystalline (S)-4-(2,2-difluoro-7-((5-methoxy-7-methyl-1H-indol-4-yl)methyl)-7-azaspiro[3.5]nonan-6-yl)benzoic acid was weighed into a glass vial with a magnetic stir bar to give formulations at dose concentrations of 0.1-1000 mg/kg. The crystalline material should preferably have a particle size with a D50 below 50 μm, and ideally with a D50 below 5 μm. The desired volume of 0.5% methocel (viscosity 400 cP, Aldrich, CAS #9004-67-5)/0.1% tween-80 (Aldrich, CAS #9005-65-6) was added (to afford a 5 mL/kg dose volume). The contents of the vial were stirred at 400-500 rpm on a stir-plate. Gentle vortex or bath sonication can be applied to break down any large clumps. The vial should be mixed well to ensure homogeneity right before animal dosing.

Data set [4] in a line: Dynamic vapor sorption (DVS) mass change. The data set is classed as physicochemical. The settings on record: 95% RH at 25° C. From the text:
[table] The mass change by DVS isotherm (2 cycles 40-0-95-0-40% RH) are in the tables below. The mass change is based on the dry weight of each.

Data set [5] in a line: Solubility in Simulated Fluids at 37° C. In kind it is physicochemical. As to conditions: for solubility at 24 h / solubility at 30 min: 37 °C, thermodynamic from solid; for solubility at 24 h: read-out: Solubility (mg/mL) 24 h; for solubility at 30 min: read-out: Solubility (mg/mL) 30 min. From the text: Solubility data of Form A (S)-4-(2,2-difluoro-7-((5-methoxy-7-methyl-1H-indol-4-yl)methyl)-7-azaspiro[3.5]nonan-6-yl)benzoic acid, Form B (S)-4-(2,2-difluoro-7-((5-methoxy-7-methyl-1H-indol-4-yl)methyl)-7-azaspiro[3.5]nonan-6-yl)benzoic acid p-toluene sulfonic acid salt, Form C (S)-4-(2,2-difluoro-7-((5-methoxy-7-methyl-1H-indol-4-yl)methyl)-7-azaspiro[3.5]nonan-6-yl)benzoic acid p-toluene sulfonic acid salt, and Form D (S)-4-(2,2-difluoro-7-((5-methoxy-7-methyl-1H-indol-4-yl)methyl)-7-azaspiro[3.5]nonan-6-yl)benzoic acid hydrochloride salt in Simulated Fluids at 37° C.

The conditions of data set [6]: after 12 weeks of treatment; cited from earlier work.
[7] abbreviates: fassgf or other biorelevant, FaSSGF, 24 h.

The values that follow come from patent US20260159497A1, “SOLID FORMS OF A COMPLEMENT FACTOR B INHIBITOR” (Novartis Pharma AG, priority 2022, published 2026).

Where two headings read alike, the source gives them in different places.

Take `COc1cc(C)c2[nH]ccc2c1CN1CCC2(C[C@H]1c1ccc(C(=O)O)cc1)CC(F)(F)C2` [(S)-4-(2,2-difluoro-7-((5-methoxy-7-methyl-1H-indol-4-yl)methyl)-7-azaspiro[3.5]nonan-6-yl)benzoic acid]: the peak concentration (Cmax) (as a rule, the peak of the concentration-time curve) is 3.64 µM in data set [1] (2 mg/kg); 139 µM in data set [1] (100 mg/kg); 8.6 µM in data set [2]; 2.42 µM in data set [3] (2 mg/kg); 94 µM in data set [3] (300 mg/kg). The AUC(0-t) in data set [1] (2 mg/kg) was 54.3 µM·h; in data set [1] (100 mg/kg), 1320 µM·h; in data set [2] (read-out: AUC0-24 h) it was 96.1 µM·h; in data set [3] (2 mg/kg, 2 mg/kg), 20.5 µM·h; in data set [3] (300 mg/kg, 300 mg/kg), 1110 µM·h. The concentration at 24 h in data set [1] (2 mg/kg) was 1.73 µM; in data set [1] (100 mg/kg), 18.8 µM; in data set [2] (read-out: C24 h) it was 1.75 µM; in data set [3] (2 mg/kg, 2 mg/kg), 0.21 µM; in data set [3] (300 mg/kg, 300 mg/kg), 18 µM.
As to `COc1cc(C)c2[nH]ccc2c1CN1CCC2(C[C@H]1c1ccc(C(=O)O)cc1)CC(F)(F)C2.Cc1ccc(S(=O)(=O)O)cc1` [Form C, (S)-4-(2,2-difluoro-7-((5-methoxy-7-methyl-1H-indol-4-yl)methyl)-7-azaspiro[3.5]nonan-6-yl)benzoic acid p-toluene sulfonic acid salt], the “moisture absorbed by DVS (absorbs up to)” value in data set [4] is listed as “up to 0.4%”. The solubility at 24 h in data set [5] (setting [7]) is 0.85 mg/mL. The “pH at 24 h” value in data set [5] (FaSSGF) is recorded as 1.56; in data set [5] (FaSSIF), 6.25; in data set [5] (FeSSIF) it was 4.97; in data set [5] (Water, initial pH 7.00), 3.37. For the same compound, the “Solubility (mg/mL) 30 min” value is recorded as 0.87 mg/mL in data set [5] (FaSSGF, 30 min); 1.68 mg/mL in data set [5] (FaSSIF, 30 min); 1.63 mg/mL in data set [5] (FeSSIF, 30 min); 0.88 mg/mL in data set [5] (Water, initial pH 7.00, 30 min). Further, the “Solubility (mg/mL) 24 h” value in data set [5] (FaSSIF, 24 h) is listed as 0.13 mg/mL; in data set [5] (FeSSIF, 24 h) it was 1.69 mg/mL; in data set [5] (Water, initial pH 7.00, 24 h) it was 1.12 mg/mL.
With `COc1cc(C)c2[nH]ccc2c1CN1CCC2(C[C@H]1c1ccc(C(=O)O)cc1)CC(F)(F)C2.Cl` [Form D, (S)-4-(2,2-difluoro-7-((5-methoxy-7-methyl-1H-indol-4-yl)methyl)-7-azaspiro[3.5]nonan-6-yl)benzoic acid hydrochloride salt], the solubility at 30 min is 2.25 mg/mL in data set [5] (fassgf or other biorelevant, FaSSGF, 30 min); 2.19 mg/mL in data set [5] (fassif, FaSSIF, 30 min); 2.19 mg/mL in data set [5] (fessif, FeSSIF, 30 min); 2.08 mg/mL in data set [5] (pH 7, water, Water, initial pH 7.00, 30 min). The solubility at 24 h is greater than 2 mg/mL in data set [5] (setting [7]); greater than 2 mg/mL in data set [5] (fassif, FaSSIF, 24 h); 2.33 mg/mL in data set [5] (fessif, FeSSIF, 24 h); greater than 2 mg/mL in data set [5] (pH 7, water, Water, initial pH 7.00, 24 h). Besides, the “pH at 24 h” value is reported as 1.57 in data set [5] (FaSSGF); 6.17 in data set [5] (FaSSIF); 4.95 in data set [5] (FeSSIF); 3.13 in data set [5] (Water, initial pH 7.00).
In the case of `CCO[C@H]1CCN(Cc2c(OC)cc(C)c3[nH]ccc23)[C@H](c2ccc(C(=O)O)cc2)C1` [iptacopan], in data set [6], the “efficacy in Phase II clinical trial in C3G” value is given as “reduced proteinuria”.
